Test results as given in ChEMBL document CHEMBL1201862, “PubChem BioAssay data set” (2004).
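Tested at 5 concentrations; 48 h exposure; 96-well plates; endpoints linearly interpolated, else capped at highest concentration. GI50 = concentration required for 50% inhibition of growth.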 Calls of active or inactive are those of the source. Rule as the data show it: active = GI50 up to about 1.1 µM and inactive = higher.

Experiments:
Test in all cases: inhibition of tumour cell growth, NCI panel, 48 h
UACC-257 = test system: UACC-257
UACC-62 = test system: UACC-62
HT-29 = test system: HT-29
XF498 = test system: XF498
UO-31 = test system: UO-31
IGROV-1 = test system: IGROV-1
HCC 2998 = test system: HCC 2998
HOP-18 = test system: HOP-18
SF-539 = test system: SF-539
SNB-78 = test system: SNB-78
M14 = test system: M14
OVCAR-5 = test system: OVCAR-5
LOX IMVI = test system: LOX IMVI
SR = test system: SR
HCT-116 = test system: HCT-116
K562 = test system: K562
TK-10 = test system: TK-10
SK-MEL-5 = test system: SK-MEL-5

Compound | GI50 (UACC-257) | GI50 (UACC-62) | GI50 (HT-29) | GI50 (XF498) | GI50 (UO-31) | GI50 (IGROV-1) | GI50 (HCC 2998) | GI50 (HOP-18) | GI50 (SF-539) | GI50 (SNB-78) | GI50 (M14) | GI50 (OVCAR-5) | GI50 (LOX IMVI) | GI50 (SR) | GI50 (HCT-116) | GI50 (K562) | GI50 (TK-10) | GI50 (SK-MEL-5)
COC1(OC)c2ccccc2C2(O)c3ccccc3C(=O)C12 (centres undefined) | 17.9 µM (inactive) | 13.6 µM (inactive) | 55.5 µM (inactive) | 17.8 µM (inactive) | 16.4 µM (inactive) | 18.2 µM (inactive) | 57.1 µM (inactive) | 52 µM (inactive) | 61 µM (inactive) | 64.4 µM (inactive) | 23.9 µM (inactive) | > 100 µM (inactive) | 44.7 µM (inactive) | 22.9 µM (inactive) | 70.8 µM (inactive) | 12.6 µM (inactive) | 37.3 µM (inactive) | 9.16 µM (inactive)
CC1=NN2C(c3ccc(C)cc3)=CSC2=NC(C)(C)C1 | > 100 µM (inactive) | > 100 µM (inactive) | > 100 µM (inactive) | 54 µM (inactive) | > 100 µM (inactive) | > 100 µM (inactive) | > 100 µM (inactive) | > 100 µM (inactive) | > 100 µM (inactive) | > 100 µM (inactive) | > 100 µM (inactive) | > 100 µM (inactive) | > 100 µM (inactive) |  | > 100 µM (inactive) | 61.5 µM (inactive) | > 100 µM (inactive) | > 100 µM (inactive)
CCN(C(C)=N)c1ccccc1 | 17.2 µM (inactive) | > 100 µM (inactive) |  | > 100 µM (inactive) | 39 µM (inactive) | > 100 µM (inactive) | > 100 µM (inactive) | > 100 µM (inactive) | > 100 µM (inactive) | > 100 µM (inactive) | > 100 µM (inactive) | > 100 µM (inactive) | > 100 µM (inactive) |  | 48.9 µM (inactive) | 43.6 µM (inactive) | > 100 µM (inactive) | 35.1 µM (inactive)
NCc1c(C(N)=O)ncn1Cc1ccccc1 | > 100 µM (inactive) | > 100 µM (inactive) | > 100 µM (inactive) | > 100 µM (inactive) |  | > 100 µM (inactive) | > 100 µM (inactive) | > 100 µM (inactive) | > 100 µM (inactive) | > 100 µM (inactive) | > 100 µM (inactive) |  | > 100 µM (inactive) |  | > 100 µM (inactive) | > 100 µM (inactive) | > 100 µM (inactive) | > 100 µM (inactive)
CC(C)(C)c1cc(O)c2c(c1O)C(=O)CCC2 | 29.4 µM (inactive) | 26 µM (inactive) | 32.9 µM (inactive) | 31.1 µM (inactive) |  | 40.7 µM (inactive) | 36.7 µM (inactive) | 60.5 µM (inactive) | 42.3 µM (inactive) | 32.7 µM (inactive) | 34.9 µM (inactive) |  | 28.4 µM (inactive) |  | 31.7 µM (inactive) | 30.3 µM (inactive) | 40.9 µM (inactive) | 18.4 µM (inactive)
C[C@]12CCC3[C@@H](CC[C@@H]4c5nonc5CC[C@]34C)C1CCC(=O)N2 (some centres undefined) | > 100 µM (inactive) | > 100 µM (inactive) | > 100 µM (inactive) | > 100 µM (inactive) | > 100 µM (inactive) | > 100 µM (inactive) |  | > 100 µM (inactive) | > 100 µM (inactive) | > 100 µM (inactive) | > 100 µM (inactive) | > 100 µM (inactive) | > 100 µM (inactive) |  | > 100 µM (inactive) | > 100 µM (inactive) | > 100 µM (inactive) | > 100 µM (inactive)
O=C(NN1C(=O)CS(=O)(=O)C1c1cccc(F)c1)c1ccncc1 (centres undefined) | > 100 µM (inactive) |  | > 100 µM (inactive) | 82.6 µM (inactive) |  |  | > 100 µM (inactive) | < 0.01 µM (active) |  | > 10 µM (inactive) | > 100 µM (inactive) | > 100 µM (inactive) | > 100 µM (inactive) | > 100 µM (inactive) | > 100 µM (inactive) |  | > 100 µM (inactive) | > 100 µM (inactive)
Cc1ccc(Nc2nc(C)c(C(/C=C/c3ccc4c(c3)OCO4)=N/Nc3ccc([N+](=O)[O-])cc3[N+](=O)[O-])s2)c([N+](=O)[O-])c1 | 53 µM (inactive) | 3.59 µM (inactive) | 50.6 µM (inactive) | 22.1 µM (inactive) | 21.8 µM (inactive) | 62.7 µM (inactive) | 28.6 µM (inactive) | 7.69 µM (inactive) | 36.3 µM (inactive) | 50.7 µM (inactive) | 61.7 µM (inactive) | 43.9 µM (inactive) | 16.3 µM (inactive) | 24.4 µM (inactive) | 52.7 µM (inactive) | 14.3 µM (inactive) | 37.8 µM (inactive) | 
N#CC(/C(CCCC(=O)Nc1cccc([N+](=O)[O-])c1)=N\NC(=O)c1c(O)ccc2ccccc12)c1nc2ccccc2s1 (centres undefined) | 35.5 µM (inactive) |  | 37 µM (inactive) | 21.8 µM (inactive) | 14.3 µM (inactive) | 13.3 µM (inactive) |  | 23.1 µM (inactive) | 15.3 µM (inactive) | 37.4 µM (inactive) | 26.9 µM (inactive) | 37.7 µM (inactive) |  | 17.5 µM (inactive) | 8.43 µM (inactive) | 7.89 µM (inactive) |  | 28.2 µM (inactive)
COc1cc2c(cc1O)C(C)Cc1cc3c(cc1N(C)CC2)OCO3 (centres undefined) | 6.15 µM (inactive) | 3.5 µM (inactive) | 12.9 µM (inactive) | 7.19 µM (inactive) | 6.41 µM (inactive) | 10 µM (inactive) | 5.27 µM (inactive) | 10.5 µM (inactive) | 2.72 µM (inactive) | 5.12 µM (inactive) | 3.22 µM (inactive) | 23.1 µM (inactive) | 5.68 µM (inactive) | 4.45 µM (inactive) | 4.04 µM (inactive) | 2.8 µM (inactive) | 27.3 µM (inactive) | 2.59 µM (inactive)
CCC(=O)OC[n+]1ccc2c(C)c3[nH]c4ccc(OC)cc4c3c(C)c2c1 | 0.7 µM (active) |  | 0.0568 µM (active) | 1.22 µM (inactive) |  | 0.048 µM (active) |  | < 0.01 µM (active) | 0.243 µM (active) | 0.693 µM (active) | 0.333 µM (active) | 0.299 µM (active) | 0.0927 µM (active) | 0.0134 µM (active) | 0.0182 µM (active) | 0.132 µM (active) | 0.94 µM (active) | 0.728 µM (active)
COc1ccc(C(=O)OC2C=COC(C)C2OC(=O)c2ccc(OC)cc2)cc1 (centres undefined) | 21 µM (inactive) | 18.4 µM (inactive) | 22.2 µM (inactive) | > 45 µM (inactive) | 45.4 µM (inactive) | 37 µM (inactive) | > 58.1 µM (inactive) | 27.2 µM (inactive) | 18 µM (inactive) | 22.5 µM (inactive) | 16.6 µM (inactive) | 77.1 µM (inactive) | 14.7 µM (inactive) | 16.1 µM (inactive) | 10.2 µM (inactive) | 17 µM (inactive) | 52.6 µM (inactive) | 16.7 µM (inactive)
COc1ccc(/C=C/C(=O)C(C)(C)CN2CCCCC2)cc1 | 17.4 µM (inactive) | 24.7 µM (inactive) | 16.6 µM (inactive) | 16.5 µM (inactive) | 17.7 µM (inactive) | 26.2 µM (inactive) | 18.3 µM (inactive) | 16.9 µM (inactive) | 19.8 µM (inactive) | 17.1 µM (inactive) | 18.2 µM (inactive) | 33.7 µM (inactive) | 14.9 µM (inactive) |  | 16.2 µM (inactive) | 24.2 µM (inactive) | 20.8 µM (inactive) | 19 µM (inactive)
CC(=O)N(C)c1ccc2c(ccc[n+]2[O-])c1[N+](=O)[O-] | > 100 µM (inactive) | > 100 µM (inactive) | > 100 µM (inactive) | > 100 µM (inactive) | > 100 µM (inactive) | > 100 µM (inactive) | > 100 µM (inactive) | > 100 µM (inactive) | > 100 µM (inactive) | > 100 µM (inactive) | > 100 µM (inactive) | > 100 µM (inactive) | > 100 µM (inactive) |  | > 100 µM (inactive) | > 100 µM (inactive) | > 100 µM (inactive) | > 100 µM (inactive)
COC(=O)C1N=CSCC1(C)O (centres undefined) | > 100 µM (inactive) | > 100 µM (inactive) | > 100 µM (inactive) | > 100 µM (inactive) | > 100 µM (inactive) | > 100 µM (inactive) | > 100 µM (inactive) | > 100 µM (inactive) | > 100 µM (inactive) | > 100 µM (inactive) | > 100 µM (inactive) | > 100 µM (inactive) | > 100 µM (inactive) |  | > 100 µM (inactive) | > 100 µM (inactive) | > 100 µM (inactive) | > 100 µM (inactive)
COC(=O)[C@@]1(O)CC(C)C=C1C=O (some centres undefined) | > 100 µM (inactive) | 73.6 µM (inactive) | 39.4 µM (inactive) | > 100 µM (inactive) | > 100 µM (inactive) | > 100 µM (inactive) | 66.5 µM (inactive) | > 100 µM (inactive) | > 100 µM (inactive) | 20.2 µM (inactive) | > 100 µM (inactive) | > 100 µM (inactive) | 53.5 µM (inactive) | 55.3 µM (inactive) | 20.8 µM (inactive) | 55 µM (inactive) | > 100 µM (inactive) | > 100 µM (inactive)
CCCCCCCCCCCCCCCCCC(=O)NCC(COP(=O)([O-])OCC[N+](C)(C)C)OC (centres undefined) | 15.9 µM (inactive) | 4.53 µM (inactive) | 3.45 µM (inactive) | 2.71 µM (inactive) | 16.9 µM (inactive) | 1.91 µM (inactive) | 1.05 µM (active) | 3.78 µM (inactive) | 17.6 µM (inactive) | 4.3 µM (inactive) | 11.5 µM (inactive) | 4.09 µM (inactive) | 10.6 µM (inactive) | 2.16 µM (inactive) | 5.66 µM (inactive) | > 10 µM (inactive) | 1.56 µM (inactive) | 15.2 µM (inactive)
